Data as given in patent US11607420B2, “Formulation” (DSM IP ASSETS B.V., priority 2018, dated 2023).

Assay: Absorption of aqueous solution after dissolving powder in water (riboflavin coloration/release)
Format: physicochemical
Conditions: powder containing 10 mg riboflavin in 1000 ml water for 15 min; measured at 545 nm, spectrophotometer
Method: 20 mg of coated powder (containing 10 mg of Riboflavin) was dissolved in 1000 ml water for 15 min. Absorption of the solution was measured at 545 nm using a spectrophotometer (Genesys 20, thermo Scientific). Absorption of the solution was 0.065.
10 mg of riboflavin powder was dissolved in 1000 ml water for 15 min. Absorption of the solution was measured at 545 nm using a spectrophotometer (Genesys 20, thermo Scientific). Absorption of the solution was 0.386.
16.6 mg of coated powder (containing 10 mg of Riboflavin) was dissolved in 1000 ml water for 15 min. Absorption of the solution was measured at 545 nm using a spectrophotometer (Genesys 20, thermo Scientific). Absorption of the solution was 0.087.

Absorption of the solution: 0.386
SMILES: Cc1cc2nc3c(=O)[nH]c(=O)nc-3n(C[C@H](O)[C@H](O)[C@H](O)CO)c2cc1C [Comparison Example 2, riboflavin]
